Series [1] has as its system ALDH1+CD44+ HNC cells. The series is described as follows: tumor initiation of transfected ALDH1+CD44+ HNC cells. The following applies: ALDH1+CD44+ cells-transplanted grafts in NOD-SCID mice. The class given is in vivo.
The test system of series [2] is ALDH1+CD44+ HNC cells. Briefly: HNC-TIC orthotopic xenograft, tumor size. The class given is in vivo, nude mice. The following applies: intra-tumoral lesion injection; five weeks after treatment; vs pLV or shLuc. Here is the method:
(§1) We further explored the therapeutic potential of miR145 in immunocompromised mice bearing HNC-TIC xenografted tumors. Nude mice that were orthotopically pre-injected with GFP-labeled ALDH1^+CD44^+ cells in the neck region were treated with miR145-overexpressing lentivirus (pLV-miR-145) and shSOX9+shADAM17 by intra-tumoral lesion injection. […] By monitoring the treated mice for up to 12 weeks, we observed that administration of pLV-miR145 or shSOX9+shADAM17 prolonged animal survival to a greater extent than did the LNA-miR145 treatment (FIG. 10B).

For series [3], the system named is ALDH1+CD44+ HNC cells. The series is described as follows: HNC-TIC orthotopic xenograft, survival. The class given is in vivo, nude mice. The following applies: monitored up to 12 weeks. Here is the method:
as §1

Series [4] concerns HNC cells. Briefly: sphere formation of HNC cells. The class given is cell-based, human. The settings on record: ALDH1+CD44+ cells; data not shown. The text has this: (§2) To identified the miRNA(s) involved in the regulation of TIC properties in HNC-TICs, we evaluated and compared the miRNA expression profiles in 3 pairs of HNC populations (ALDH1^+ vs. ALDH1^−, CD44^+ vs. CD44^−, and sphere-forming vs. parental) derived from patient specimens. […] To further investigate whether miR145 plays a role in the identity of HNC-TICs, two patient sample-derived HNC cell lines (HNC-1 and HNC-2) and an immortalized HNC cell line (FaDu) were subjected to quantitative RT-PCR analysis to confirm that miR145 levels were low in ALDH1^+/CD44^+ and sphere-forming HNC cells but high in ALDH1^−/CD44^− and parental cells (FIG. 8A, left and middle). To evaluate the role of miR145 on cancer initiation, we knocked down miR145 in ALDH1^−CD44^− cells derived from HNC-1, HNC-2, and FaDu cells using an miRNA SPONGE strategy (FIG. 8A, right), and subjected these cells to functional and molecular analysis. As shown in FIGS. 8B-D, the sphere formation ability and the percentage of ALDH1^+ and CD44^+ cells was all elevated upon miR145 knockdown (Spg-miR145) as compared to the control (Spg-ctrl) cells. […]

Series [5] has as its system HNC cells. The series is described as follows: percentage of ALDH1+ and CD44+ HNC cells. The class given is cell-based, human. The settings on record: data not shown.
Excerpt: as §2

Series [6] concerns HNC cells. Briefly: invasion of HNC cells. The settings on record: ALDH1+CD44+ cells; data not shown. The class given is cell-based, human.
Excerpt: as §2

For the substance “shSOX9+shADAM17: lentiviral-based shRNAs for co-knockdown of SOX9 (SEQ ID NO: 28) and ADAM17 (SEQ ID NO: 29) (chain 1 GCGGAGGAAGTCGGTGAAGAA; chain 2 CCTATGTCGATGCTGAACAAA; the letters are possibly those of the target site)”, in the series with ALDH1+CD44+ HNC cells [1], the tumor-initiating property entry is given as “effectively inhibited”. Also, the tumor size entry with ALDH1+CD44+ HNC cells [2] was “dramatically reduced”. Also, in the series with ALDH1+CD44+ HNC cells [3], the animal survival entry is on record as “prolonged”. For the same substance, the sphere-forming ability result in the series on HNC cells [4] is on record as “reduction”. Moreover, in the series with HNC cells [5], the “percentages of CD44+ and ALDH1+ cells” value is given as “reduced”. For the same substance, the invasive capacity entry in the series on HNC cells [6] was “reduced”.

For the origin of these results see patent US8846633B2, “Method for inhibiting cancer stem cell like properties and chemoradioresistant properties of cancer or tumor cells with microRNA145” (Taipei Veterans General Hospital, priority 2011, dated 2014).
